# Measured values from US20250195530A1, “POLQ INHIBITORS” (ASTRAZENECA AB, priority 2022, published 2025).
# Where two headings read alike, the source gives them in different places.
# Assays:
# DLD-1 BRCA2−/− cells = test: Homologous recombination synthetic lethal inhibition of proliferation, DLD-1 BRCA2-/- (Cell Titre Glo 3D); format: cell-based; conditions: for IC50: Homo sapiens
# In short: (§1)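 Proliferation of HR-deficient DLD-1 BRCA2−/− versus isogenic wild-type DLD-1 was measured by ATP luminescence (CellTiter-Glo 3D). Compound exposure lasted 12 or 7 days, respectively, with a fresh dose on day 6. IC50 was the concentration halving maximal signal.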
# DLD-1 cells = test: Inhibition of proliferation, DLD-1 BRCA2 wt control (Cell Titre Glo 3D); format: cell-based; conditions: for IC50: Homo sapiens
# In short: as §1
# [1] = DLD-1, proliferation, luminescence, taken as DLD-1 BRCA2-/-, read-out: POLQ PD Prolif Lumin (converted)
# [2] = DLD-1, proliferation, luminescence, second Prolif column (c6), taken as DLD-1 BRCA2 wt control, read-out: POLQ PD Prolif Lumin (converted)
# [3] = DLD-1, first proliferation column (c5), DLD-1 BRCA2-/-, read-out: POLQ PD Prolif Lumin (converted)
# [4] = DLD-1, second proliferation column (c6), DLD-1 BRCA2 wt control, read-out: POLQ PD Prolif Lumin (converted)
# [5] = DLD-1, 288 h, DLD-1 BRCA2−/− cells, 12 days, read-out: POLQ PD Prolif Lumin BRCA2 −/− mean pIC50 (converted)
# [6] = DLD-1, 168 h, DLD-1 BRCA2 wt cells, 7 days, read-out: POLQ PD Prolif Lumin DLD1 mean pIC50 (converted)
# [7] = DLD-1, 288 h, DLD-1 BRCA2−/−, 12 days, Cell Titre Glo 3D, read-out: POLQ PD Prolif Lumin BRCA2 −/− Mean pIC50 (converted)
# [8] = DLD-1, 168 h, DLD-1 (BRCA2 wt control), 7 days, Cell Titre Glo 3D, read-out: POLQ PD Prolif Lumin DLD1 Mean pIC50 (converted)
# [9] = DLD-1, DLD-1 BRCA2 −/−, mean, read-out: POLQ PD Prolif Lumin BRCA2 −/− mean pIC50 (converted)
# [10] = DLD-1, DLD1 BRCA2 wt, mean, read-out: POLQ PD Prolif Lumin DLD1 mean pIC50 (converted)
structure (smiles),measurement,setting,value
"Cc1ccnc(Cn2c(-c3ccc(CC(=O)N4C[C@@H](O)[C@H](F)C4)cc3Cl)nc3c(OC4(C)CC4)ncnc32)c1 [Example T422, 2-(3-chloro-4-(6-(1-methylcyclopropoxy)-9-((4-methylpyridin-2-yl)methyl)-9H-purin-8-yl)phenyl)-1-((3R,4R)-3-fluoro-4-hydroxypyrrolidin-1-yl)ethan-1-one]",IC50,DLD-1 BRCA2−/− cells; [1],1000 nM
same,IC50,DLD-1 cells; [2],> 10000 nM
"CC1(Oc2ncnc3c2nc(-c2ccc(OCCCN4CC(O)C4)cc2Cl)n3Cc2cc(C(F)F)ccn2)CC1 [Example T452, 1-(3-(3-chloro-4-(9-((4-(difluoromethyl)pyridin-2-yl)methyl)-6-(1-methylcyclopropoxy)-9H-purin-8-yl)phenoxy)propyl)azetidin-3-ol]",IC50,DLD-1 BRCA2−/− cells; [1],794 nM
same,IC50,DLD-1 cells; [2],> 10000 nM
"Cc1cnc(Cn2c(-c3ccc(OCCCN(C)C)cc3Cl)nc3c(OC4(C)CC4)ncnc32)s1 [Example T148, 3-(3-chloro-4-(6-(1-methylcyclopropoxy)-9-((5-methylthiazol-2-yl)methyl)-9H-purin-8-yl)phenoxy)-N,N-dimethylpropan-1-amine]",IC50,DLD-1 BRCA2−/− cells; [3],316 nM
same,IC50,DLD-1 cells; [4],> 7940 nM
"CN1CCN(CCOc2ccc(-c3nc4c(OC5(C)CC5)ncnc4n3Cc3cccc(Cl)c3)c(Cl)c2)CC1 [Example E2, 8-(2-chloro-4-(2-(4-methylpiperazin-1-yl)ethoxy)phenyl)-9-(3-chlorobenzyl)-6-(1-methylcyclopropoxy)-9H-purine]",IC50,DLD-1 BRCA2−/− cells; [5],25.1 nM
same,IC50,DLD-1 cells; [6],3160 nM
"CC1(Oc2ncnc3c2nc(-c2ccc(OCCN4CCNCC4)cc2Cl)n3Cc2cncc(Cl)c2)CC1 [Example T379, 8-(2-chloro-4-(2-(piperazin-1-yl)ethoxy)phenyl)-9-((5-chloropyridin-3-yl)methyl)-6-(1-methylcyclopropoxy)-9H-purine]",IC50,"DLD-1 BRCA2−/− cells; DLD-1, first proliferation column (c5), taken as DLD-1 BRCA2-/-, read-out: POLQ PD Prolif Lumin (converted)",251 nM
same,IC50,"DLD-1 cells; DLD-1, second proliferation column (c6), taken as DLD-1 BRCA2 wt, read-out: POLQ PD Prolif Lumin (converted)",> 10000 nM
"Cc1cc(N2CC(N(C)C)C2)ncc1-c1nc2c(OC3(C)CC3)ncnc2n1Cc1ccccc1 [Example F2, 1-(5-(9-benzyl-6-(1-methylcyclopropoxy)-9H-purin-8-yl)-4-methylpyridin-2-yl)-N,N-dimethylazetidin-3-amine]",IC50,DLD-1 BRCA2−/− cells; [5],316 nM
same,IC50,DLD-1 cells; [6],> 10000 nM
"CC1(Oc2ncnc3c2nc(-c2ccc(OCCN4CCNCC4)cc2Cl)n3Cc2ncsc2Cl)CC1 [Example T145, 5-chloro-4-((8-(2-chloro-4-(2-(piperazin-1-yl)ethoxy)phenyl)-6-(1-methylcyclopropoxy)-9H-purin-9-yl)methyl)thiazole]",IC50,DLD-1 BRCA2−/− cells; [3],2000 nM
same,IC50,DLD-1 cells; [4],> 10000 nM
"N#CC1(Oc2ncnc3c2nc(-c2ccc(OCCN4CCNCC4)cc2Cl)n3Cc2ccccc2)CC1 [Example 13, 1-((9-Benzyl-8-(2-chloro-4-(2-(piperazin-1-yl)ethoxy)phenyl)-9H-purin-6-yl)oxy)cyclopropane-1-carbonitrile]",IC50,DLD-1 BRCA2−/− cells; [5],251 nM
same,IC50,DLD-1 cells; [6],> 10000 nM
"CC1(Oc2ncnc3c2nc(-c2ccc(OCCOC(C)(C)C(=O)O)cc2Cl)n3Cc2cccc(Cl)c2)CC1 [Example T450, 2-(2-(3-chloro-4-(9-(3-chlorobenzyl)-6-(1-methylcyclopropoxy)-9H-purin-8-yl)phenoxy)ethoxy)-2-methylpropanoic acid]",IC50,DLD-1 BRCA2−/− cells; [1],200 nM
same,IC50,DLD-1 cells; [2],> 10000 nM
"CN1CCN(CCOc2ccc(-c3nc4c(OC5(C)CC5)ncnc4n3Cc3ccccc3)c(CO)c2)CC1 [Example H10, (2-(9-benzyl-6-(1-methylcyclopropoxy)-9H-purin-8-yl)-5-(2-(4-methylpiperazin-1-yl)ethoxy)phenyl)methanol]",IC50,DLD-1 BRCA2−/− cells; [5],794 nM
same,IC50,DLD-1 cells; [6],> 10000 nM
"COc1ccc(Cl)cc1Cn1c(-c2ccc(O[C@H]3CC[C@H](C(=O)O)CC3)cc2Cl)nc2c(OC3(C)CC3)ncnc21 [Example U43, (1r,4r)-4-(3-chloro-4-(9-(5-chloro-2-methoxybenzyl)-6-(1-methylcyclopropoxy)-9H-purin-8-yl)phenoxy)cyclohexane-1-carboxylic acid]",POLQ PD Prolif Lumin BRCA2 −/− mean pIC50,"DLD-1 BRCA2−/− cells; DLD-1 BRCA2 −/−, mean",7.2
same,POLQ PD Prolif Lumin DLD1 mean pIC50,"DLD-1 cells; DLD1 BRCA2 wt, mean",<5.0
"Cc1ccnc(Cn2c(-c3ccc(OCCO)cc3Cl)nc3c(OC4(C)CC4)ncnc32)c1 [Example 33, 2-(3-Chloro-4-(6-(1-methylcyclopropoxy)-9-((4-methylpyridin-2-yl)methyl)-9H-purin-8-yl)phenoxy)ethan-1-ol]",IC50,DLD-1 BRCA2−/− cells; [7],126 nM
same,IC50,DLD-1 cells; [8],> 10000 nM
"Cc1ccnc(Cn2c(-c3cccc(CC(N)=O)c3Cl)nc3c(OC4(C)CC4)ncnc32)c1 [Example T56, 2-(2-chloro-3-(6-(1-methylcyclopropoxy)-9-((4-methylpyridin-2-yl)methyl)-9H-purin-8-yl)phenyl)acetamide]",IC50,"DLD-1 BRCA2−/− cells; DLD-1, DLD-1 BRCA2 −/− cells, mean, read-out: POLQ PD Prolif Lumin BRCA2 −/− mean pIC50 (converted)",794 nM
same,IC50,"DLD-1 cells; DLD-1, DLD1 BRCA2 wt cells, mean, read-out: POLQ PD Prolif Lumin DLD1 mean PIC50 (converted)",> 10000 nM
"CN(CCOc1ccc(-c2nc3c(OC4(C)CC4)ncnc3n2Cc2ccccc2)c(Cl)c1)CC(=O)O [Example D30, N-(2-(4-(9-benzyl-6-(1-methylcyclopropoxy)-9H-purin-8-yl)-3-chlorophenoxy)ethyl)-N-methylglycine]",IC50,DLD-1 BRCA2−/− cells; [5],1260 nM
same,IC50,DLD-1 cells; [6],> 10000 nM
"Cc1ccnc(Cn2c(-c3ccc(CC(N)=O)cc3Cl)nc3c(OC4(C)CC4)ncnc32)c1 [Example 30, 2-(3-Chloro-4-(6-(1-methylcyclopropoxy)-9-((4-methylpyridin-2-yl)methyl)-9H-purin-8-yl)phenyl)acetamide]",IC50,DLD-1 BRCA2−/− cells; [7],631 nM
same,IC50,DLD-1 cells; [8],> 10000 nM
"CC1(Oc2ncnc3c2nc(-c2ccc(OCCCOCCC(=O)O)cc2Cl)n3Cc2cccc(Cl)c2)CC1 [Example T449, 3-(3-(3-chloro-4-(9-(3-chlorobenzyl)-6-(1-methylcyclopropoxy)-9H-purin-8-yl)phenoxy)propoxy)propanoic acid]",IC50,DLD-1 BRCA2−/− cells; [1],50.1 nM
same,IC50,DLD-1 cells; [2],> 10000 nM
"Cc1cc(OCCN2CCN(C)CC2)ncc1-c1nc2cc(OC(C)C)ccc2n1Cc1cccc(Cl)c1 [Example A7, 1-(3-chlorobenzyl)-5-isopropoxy-2-(4-methyl-6-(2-(4-methylpiperazin-1-yl)ethoxy)pyridin-3-yl)-1H-benzo[d]imidazole]",IC50,DLD-1 BRCA2−/− cells; [5],251 nM
same,IC50,DLD-1 cells; [6],1580 nM
"COc1ccc(C)cc1Cn1c(-c2ccc(OCC[C@H](C)C(=O)O)cc2Cl)nc2c(OC3(C)CC3)ncnc21 [Example U94, (S)-4-(3-chloro-4-(9-(2-methoxy-5-methylbenzyl)-6-(1-methylcyclopropoxy)-9H-purin-8-yl)phenoxy)-2-methylbutanoic acid]",IC50,DLD-1 BRCA2−/− cells; [9],50.1 nM
same,IC50,DLD-1 cells; [10],> 10000 nM
"CC1(Oc2ncnc3c2nc(-c2ccc(OCCCN4CCNCC4=O)cc2Cl)n3Cc2ccccc2)CC1 [Example S1, 1-(3-(4-(9-benzyl-6-(1-methylcyclopropoxy)-9H-purin-8-yl)-3-chlorophenoxy)propyl)piperazin-2-one]",IC50,DLD-1 BRCA2−/− cells; [5],39.8 nM
same,IC50,DLD-1 cells; [6],> 10000 nM
"COc1ccc(Cl)cc1Cn1c(-c2cccc(CCCC(=O)O)c2Cl)nc2c(OC3(C)CC3)ncnc21 [Example U62, 4-(2-chloro-3-(9-(5-chloro-2-methoxybenzyl)-6-(1-methylcyclopropoxy)-9H-purin-8-yl)phenyl)butanoic acid]",IC50,DLD-1 BRCA2−/− cells; [9],50.1 nM
same,IC50,DLD-1 cells; [10],> 10000 nM
"Cc1cc(OCCN)ncc1-c1nc2c(OC3(C)CC3)ncnc2n1Cc1ccccc1 [Example G8, 2-((5-(9-benzyl-6-(1-methylcyclopropoxy)-9H-purin-8-yl)-4-methylpyridin-2-yl)oxy)ethan-1-amine]",IC50,DLD-1 BRCA2−/− cells; [5],2000 nM
same,IC50,DLD-1 cells; [6],7940 nM
"CC1(Oc2ncnc3c2nc(-c2cccc(OCCCCOCC(=O)O)c2Cl)n3Cc2cccc(Cl)c2)CC1 [Example T448, 2-(4-(2-chloro-3-(9-(3-chlorobenzyl)-6-(1-methylcyclopropoxy)-9H-purin-8-yl)phenoxy)butoxy)acetic acid]",IC50,DLD-1 BRCA2−/− cells; [1],79.4 nM
same,IC50,DLD-1 cells; [2],> 10000 nM
"CC1(Oc2ncnc3c2nc(-c2ccc(OCCN4CCNCC4)cc2Cl)n3Cc2cccc(Cl)n2)CC1 [Example 23, 8-(2-chloro-4-(2-(piperazin-1-yl)ethoxy)phenyl)-9-((6-chloropyridin-2-yl)methyl)-6-(1-methylcyclopropoxy)-9H-purine]",IC50,DLD-1 BRCA2−/− cells; [5],631 nM
same,IC50,DLD-1 cells; [6],> 10000 nM
"Cc1cc(OCCN2CCNCC2)ccc1-c1nc2c(OC3(C)CC3)ncnc2n1Cc1cc(Cl)ccn1 [Example T529, 9-((4-chloropyridin-2-yl)methyl)-8-(2-methyl-4-(2-(piperazin-1-yl)ethoxy)phenyl)-6-(1-methylcyclopropoxy)-9H-purine]",IC50,DLD-1 BRCA2−/− cells; [3],631 nM
same,IC50,DLD-1 cells; [4],> 10000 nM
